Source: ChEMBL document CHEMBL1773004, “1-[(1-methyl-1H-imidazol-2-yl)methyl]-4-phenylpiperidines as mGluR2 positive allosteric modulators for the treatment of psychosis” (J Med Chem, 2011)
Calls of active or inactive are those of the source. No cut-off for these calls is given here.

Tests used:
[1] = target: Metabotropic glutamate receptor 2 (Rattus norvegicus, UniProt P31421); assay: Positive allosteric modulation of rat mGluR2 expressed in HEK293 cells co-expressing Galpha15 G protein assessed as increase in glutamate-induced intracellular calcium release by FLIPR assay; assay type: functional, cell-based
Sequence of Metabotropic glutamate receptor 2 (Rattus norvegicus, UniProt P31421) (P31421 whole entry): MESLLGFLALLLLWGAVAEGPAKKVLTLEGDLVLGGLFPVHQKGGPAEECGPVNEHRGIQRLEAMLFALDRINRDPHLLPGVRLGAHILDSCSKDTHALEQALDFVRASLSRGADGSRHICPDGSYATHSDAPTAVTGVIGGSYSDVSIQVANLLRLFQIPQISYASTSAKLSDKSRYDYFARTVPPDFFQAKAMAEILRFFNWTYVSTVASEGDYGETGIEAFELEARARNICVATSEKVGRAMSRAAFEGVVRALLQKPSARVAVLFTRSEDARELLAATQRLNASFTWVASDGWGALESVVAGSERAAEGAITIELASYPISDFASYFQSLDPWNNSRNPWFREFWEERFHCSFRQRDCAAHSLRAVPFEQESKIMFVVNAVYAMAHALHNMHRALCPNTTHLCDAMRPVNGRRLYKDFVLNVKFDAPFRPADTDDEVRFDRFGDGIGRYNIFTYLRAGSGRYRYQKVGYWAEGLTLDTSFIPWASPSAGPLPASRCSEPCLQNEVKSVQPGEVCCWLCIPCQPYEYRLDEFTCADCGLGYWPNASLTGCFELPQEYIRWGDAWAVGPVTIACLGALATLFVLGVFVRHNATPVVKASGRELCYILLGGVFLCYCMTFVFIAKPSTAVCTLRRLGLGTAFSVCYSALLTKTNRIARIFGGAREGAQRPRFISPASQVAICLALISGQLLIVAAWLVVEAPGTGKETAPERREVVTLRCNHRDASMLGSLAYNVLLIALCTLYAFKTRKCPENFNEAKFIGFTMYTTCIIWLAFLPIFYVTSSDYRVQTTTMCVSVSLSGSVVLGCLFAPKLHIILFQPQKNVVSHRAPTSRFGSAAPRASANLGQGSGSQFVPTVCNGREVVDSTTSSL

D(2) dopamine receptor = D(2) dopamine receptor (Rattus norvegicus, UniProt P61169); assay: Displacement of [3H]spiperone from dopamine D2 receptor in rat corpus striatum by beta plate scintillation counting; assay type: tissue-based
Sequence of D(2) dopamine receptor (P61169 whole entry): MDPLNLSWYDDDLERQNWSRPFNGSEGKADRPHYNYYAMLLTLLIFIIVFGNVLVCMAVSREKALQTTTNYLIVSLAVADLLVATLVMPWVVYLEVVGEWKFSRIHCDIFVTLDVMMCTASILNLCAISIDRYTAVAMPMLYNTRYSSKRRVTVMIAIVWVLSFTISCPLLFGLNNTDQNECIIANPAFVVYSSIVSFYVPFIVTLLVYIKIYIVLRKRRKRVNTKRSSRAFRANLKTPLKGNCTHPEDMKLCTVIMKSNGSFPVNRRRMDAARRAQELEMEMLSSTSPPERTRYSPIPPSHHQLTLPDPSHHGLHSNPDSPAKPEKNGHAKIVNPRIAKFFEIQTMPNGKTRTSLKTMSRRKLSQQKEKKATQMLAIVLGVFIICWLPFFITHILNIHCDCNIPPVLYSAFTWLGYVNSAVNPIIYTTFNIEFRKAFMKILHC

HEK293 = assay: Selectivity ratio of Ki for dopamine D2 receptor in rat corpus striatum to EC50 for rat mGluR2 expressed in HEK293 cells; assay type: cell-based
[2] = Cmax in rat brain at 5 mg/kg, po; assay type: ADME, organism-based; set-up: dose 5 mg/kg, route oral
Brain = assay: Fraction unbound in rat brain by LC-MS/MS assay; assay type: ADME, tissue-based
[3] = Ratio of drug level in brain to plasma in rat at 3.2 mg/kg, sc after 60 mins; assay type: ADME, organism-based; set-up: dose 3.2 mg/kg, route subcutaneous
[4] = Ratio of drug level in brain to plasma in mouse at 10 mg/kg, sc after 60 mins; assay type: ADME, organism-based; set-up: dose 10 mg/kg, route subcutaneous
[5] = target: Metabotropic glutamate receptor 2 (Homo sapiens, UniProt Q14416); assay: Positive allosteric modulation of human mGluR2 expressed in HEK293 cells co-expressing Galpha15 G protein assessed as increase in glutamate-induced intracellular calcium release by FLIPR assay; assay type: functional, cell-based
Sequence of Metabotropic glutamate receptor 2 (Homo sapiens, UniProt Q14416) (Q14416 whole entry): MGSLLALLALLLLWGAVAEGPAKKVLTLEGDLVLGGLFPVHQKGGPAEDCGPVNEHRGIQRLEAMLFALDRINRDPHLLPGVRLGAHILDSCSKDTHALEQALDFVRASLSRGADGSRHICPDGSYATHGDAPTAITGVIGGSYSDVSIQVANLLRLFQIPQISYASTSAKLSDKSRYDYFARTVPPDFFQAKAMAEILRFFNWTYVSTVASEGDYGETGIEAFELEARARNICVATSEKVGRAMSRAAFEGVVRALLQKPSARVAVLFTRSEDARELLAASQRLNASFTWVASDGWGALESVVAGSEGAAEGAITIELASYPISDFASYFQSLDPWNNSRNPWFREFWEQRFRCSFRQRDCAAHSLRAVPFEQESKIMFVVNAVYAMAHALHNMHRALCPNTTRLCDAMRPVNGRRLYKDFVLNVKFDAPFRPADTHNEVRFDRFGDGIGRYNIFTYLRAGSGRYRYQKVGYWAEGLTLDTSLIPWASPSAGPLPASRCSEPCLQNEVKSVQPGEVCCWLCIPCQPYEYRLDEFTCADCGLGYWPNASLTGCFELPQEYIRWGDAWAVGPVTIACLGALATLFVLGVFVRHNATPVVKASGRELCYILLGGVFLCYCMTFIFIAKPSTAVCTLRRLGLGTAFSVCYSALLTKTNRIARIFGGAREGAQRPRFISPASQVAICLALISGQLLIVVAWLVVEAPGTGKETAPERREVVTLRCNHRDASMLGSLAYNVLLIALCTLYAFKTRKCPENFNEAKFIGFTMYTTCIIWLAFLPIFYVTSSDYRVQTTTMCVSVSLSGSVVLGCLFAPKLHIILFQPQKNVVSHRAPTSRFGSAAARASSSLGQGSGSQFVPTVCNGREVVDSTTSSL

[6] = Permeability from apical to basolateral side of MDR1 transfected MDCK cells at 1 uM; assay type: ADME, cell-based, Canis lupus familiaris; details: dog, read-out: permeability
MDCK = assay: Efflux ratio of permeability from […] of MDR1 transfected MDCK cells at 1 uM; assay type: ADME, cell-based, Canis lupus familiaris; details: dog
[7] = target: Metabotropic glutamate receptor 1 (Homo sapiens) (UniProt Q13255); assay: Agonist activity at mGlu1 receptor at up to 10 uM; assay type: functional
Sequence of Metabotropic glutamate receptor 1 (Homo sapiens) (Q13255 19-1194 limits assumed): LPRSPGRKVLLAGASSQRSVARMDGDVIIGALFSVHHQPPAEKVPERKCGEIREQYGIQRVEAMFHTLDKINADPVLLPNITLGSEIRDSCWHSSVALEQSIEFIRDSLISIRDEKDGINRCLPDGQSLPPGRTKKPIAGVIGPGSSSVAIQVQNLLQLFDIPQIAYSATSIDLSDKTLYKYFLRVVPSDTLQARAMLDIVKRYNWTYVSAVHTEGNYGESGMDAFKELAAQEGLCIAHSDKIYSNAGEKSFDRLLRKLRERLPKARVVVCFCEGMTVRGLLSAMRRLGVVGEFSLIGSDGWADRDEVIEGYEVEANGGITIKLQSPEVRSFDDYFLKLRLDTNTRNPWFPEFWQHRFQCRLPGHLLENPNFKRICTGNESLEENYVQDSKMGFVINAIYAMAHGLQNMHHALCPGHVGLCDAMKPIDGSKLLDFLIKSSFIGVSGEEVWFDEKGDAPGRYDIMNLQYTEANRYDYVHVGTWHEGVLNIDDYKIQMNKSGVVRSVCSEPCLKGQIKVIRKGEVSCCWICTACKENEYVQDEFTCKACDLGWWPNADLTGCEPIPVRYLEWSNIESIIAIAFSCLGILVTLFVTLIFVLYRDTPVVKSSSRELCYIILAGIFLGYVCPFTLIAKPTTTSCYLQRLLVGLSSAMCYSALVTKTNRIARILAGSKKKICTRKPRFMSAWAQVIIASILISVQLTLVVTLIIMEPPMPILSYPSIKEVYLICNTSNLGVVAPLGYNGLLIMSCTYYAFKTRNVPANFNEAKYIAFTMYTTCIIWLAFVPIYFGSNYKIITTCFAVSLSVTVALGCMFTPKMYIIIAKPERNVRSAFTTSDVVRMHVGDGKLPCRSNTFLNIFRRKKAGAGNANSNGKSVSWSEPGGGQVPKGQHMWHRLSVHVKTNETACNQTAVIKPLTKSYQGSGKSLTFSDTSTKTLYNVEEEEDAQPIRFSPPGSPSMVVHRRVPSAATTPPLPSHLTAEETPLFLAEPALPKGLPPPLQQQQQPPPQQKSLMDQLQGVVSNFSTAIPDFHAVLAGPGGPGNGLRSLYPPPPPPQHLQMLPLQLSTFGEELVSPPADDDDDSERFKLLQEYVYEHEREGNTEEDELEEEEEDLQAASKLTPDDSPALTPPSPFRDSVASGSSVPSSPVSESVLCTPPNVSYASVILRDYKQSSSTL

[8] = target: Metabotropic glutamate receptor 1 (Homo sapiens) (UniProt Q13255); assay: Antagonist activity at mGlu1 receptor at up to 10 uM; assay type: functional
[9] = target: Metabotropic glutamate receptor 5 (Homo sapiens) (UniProt P41594); assay: Agonist activity at mGlu5 receptor at up to 10 uM; assay type: functional
Sequence of Metabotropic glutamate receptor 5 (Homo sapiens) (P41594 21-1212 limits assumed): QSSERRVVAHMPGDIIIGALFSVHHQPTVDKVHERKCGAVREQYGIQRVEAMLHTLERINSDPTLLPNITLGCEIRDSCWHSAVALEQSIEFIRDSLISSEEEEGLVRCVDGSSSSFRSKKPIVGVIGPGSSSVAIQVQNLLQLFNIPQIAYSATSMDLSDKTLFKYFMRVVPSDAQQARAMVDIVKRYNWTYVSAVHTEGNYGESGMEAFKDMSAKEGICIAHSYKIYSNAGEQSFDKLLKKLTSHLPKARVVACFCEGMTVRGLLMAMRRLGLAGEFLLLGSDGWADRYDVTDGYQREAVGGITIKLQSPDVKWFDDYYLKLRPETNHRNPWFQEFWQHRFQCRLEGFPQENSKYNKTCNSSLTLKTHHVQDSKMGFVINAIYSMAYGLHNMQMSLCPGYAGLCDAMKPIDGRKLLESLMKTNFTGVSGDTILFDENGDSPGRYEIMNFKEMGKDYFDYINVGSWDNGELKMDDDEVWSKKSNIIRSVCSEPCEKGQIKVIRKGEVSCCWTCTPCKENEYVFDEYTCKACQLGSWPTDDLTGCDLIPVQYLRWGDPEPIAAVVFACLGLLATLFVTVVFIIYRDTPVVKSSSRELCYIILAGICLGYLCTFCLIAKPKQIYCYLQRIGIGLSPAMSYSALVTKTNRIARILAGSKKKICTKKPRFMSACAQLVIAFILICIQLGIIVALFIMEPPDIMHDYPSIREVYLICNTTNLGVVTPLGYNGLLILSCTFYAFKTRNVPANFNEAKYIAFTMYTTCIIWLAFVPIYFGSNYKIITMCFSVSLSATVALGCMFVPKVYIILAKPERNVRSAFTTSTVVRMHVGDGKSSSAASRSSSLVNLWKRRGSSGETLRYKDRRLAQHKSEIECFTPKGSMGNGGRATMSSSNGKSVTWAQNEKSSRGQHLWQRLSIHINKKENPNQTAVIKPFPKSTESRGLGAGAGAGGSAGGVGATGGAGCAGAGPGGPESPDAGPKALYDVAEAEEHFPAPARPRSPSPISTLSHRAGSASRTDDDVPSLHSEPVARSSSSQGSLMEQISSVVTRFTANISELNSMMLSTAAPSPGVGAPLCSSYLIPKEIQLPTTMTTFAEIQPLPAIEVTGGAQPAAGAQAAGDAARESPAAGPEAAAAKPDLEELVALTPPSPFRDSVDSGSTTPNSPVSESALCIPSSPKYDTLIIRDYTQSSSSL

[10] = target: Metabotropic glutamate receptor 5 (Homo sapiens) (UniProt P41594); assay: Antagonist activity at mGlu5 receptor at up to 10 uM; assay type: functional
[11] = target: Metabotropic glutamate receptor 5 (Homo sapiens) (UniProt P41594); assay: Positive allosteric modulation of mGlu5 receptor at up to 10 uM
Mus musculus [12] = assay: Antipsychotic activity in sc dosed CD1 mouse assessed as inhibition of mescaline-induced scratching behavioral response administered 20 mins before mescalin challenge measured for 12 mins; assay type: functional
[13] = Cmax in rat brain at 3 mg/kg, po; assay type: ADME, organism-based; set-up: dose 3 mg/kg, route oral
Mus musculus [14] = assay: Antipsychotic activity in sc dosed mouse assessed as inhibition of methamphetamine-induced hyperlocomotion measured for 60 mins; assay type: functional
[15] = Oral bioavailability in rat at 3 mg/kg; assay type: ADME, organism-based; details: in vivo
[16] = Plasma clearance in rat at 0.5 mg/kg, iv; assay type: ADME, organism-based; set-up: dose 0.5 mg/kg, route intravenous
[17] = Cmax in rat brain at 10 mg/kg, po; assay type: ADME, organism-based; set-up: dose 10 mg/kg, route oral
[18] = Oral bioavailability in rat at 10 mg/kg; assay type: ADME, organism-based; details: in vivo
[19] = Plasma clearance in rat at 1 mg/kg, iv; assay type: ADME, organism-based; set-up: dose 1 mg/kg, route intravenous

For Cn1c(CN2CCC(c3ccccc3Cl)CC2)nc2ccccc21, the EC50 [1] was 144 nM.
Cn1c(CN2CCC(c3ccccc3)CC2)nc2ccccc21 gave an EC50 [1] of 212 nM.
For Cn1c(CN2CCC(c3cccc(C#N)c3)CC2)nc2ccccc21, the EC50 [1] was 1620 nM.
In the case of Cn1c(CN2CCC(c3ccc(C(F)(F)F)cc3)CC2)nc2ccccc21, the Ki (D(2) dopamine receptor) is reported as 561 nM and the EC50 [1] is reported as 78 nM.
Cn1c(CN2CCC(c3ccc(C(F)(F)F)cc3)CC2)nc2ccncc21 showed an EC50 [1] of 196 nM.
In the case of COc1cc(C(F)(F)F)ccc1[C@H]1CCN(Cc2nc3ncccc3n2C)C[C@H]1C, the EC50 [1] is reported as 787 nM.
In the case of C[C@H]1CN(Cc2nc3ncccc3n2C)CC[C@H]1c1ccc(Cl)cc1F, the Ki (D(2) dopamine receptor) is reported as 1620 nM and the EC50 [1] is reported as 28 nM.
Work on Cn1c(CN2CCC(c3ccc(Cl)cc3F)CC2)nc2ccccc21 yielded an EC50 [1] of 7.6 nM.
With COc1cc(C(F)(F)F)ccc1[C@@H]1CCN(Cc2nc3ncccc3n2C)C[C@@H]1C the Ratio (HEK293) was over 239, the Cmax [2] was 1580 nM and the Fu (Brain) was 0.6%. For the same molecule, the Kp at 1 h [3] was 8, the Kp at 1 h [4] was 1.7 and the EC50 [5] was 76 nM. The Ki (D(2) dopamine receptor) was over 5260 nM, the Papp A→B at 1 µM [6] was 19 ×10⁻⁶ cm/s and the Ratio (MDCK) was 1.5. The EC50 [1] was 22 nM, the Activity [7] was “inactive” and the Activity [8] was “inactive”. For the same molecule, the Activity [9] was “inactive”, the Activity [10] was “inactive” and the Activity [11] was “inactive”.
For COc1ccccc1N1CCN(Cc2c(Br)c(=O)n(-c3ccccc3)n2C)CC1, the EC50 [1] was 891 nM.
With Cn1c(CN2CCC(c3cccc(F)c3)CC2)nc2ccccc21 the EC50 [1] was 3310 nM.
Work on C[C@@H]1CN(Cc2nc3ncccc3n2C)CC[C@@H]1c1ccc(Cl)cc1F yielded an EC50 [1] of over 1810 nM.
For C[C@H]1CN(Cc2nc3ncccc3n2C)CC[C@H]1c1ccc(OC(F)(F)F)cc1F, the inhibition (Mus musculus [12]) was “Dose-dependent effect”, the minimal effective dose (Mus musculus [12]; read-out: MED) was 10 mg/kg and the Cmax [13] was 1070 nM. For the same molecule, the inhibition (Mus musculus [14]) was “Dose-dependent effect”, the minimal effective dose (Mus musculus [14]; 1 h, read-out: MED) was 17.8 mg/kg and the bioavailability [15] was 50%. For the same molecule, the clearance [16] was 4.5 mL/min/kg, the Fu (Brain) was 0.3% and the Kp at 1 h [3] was 4. The Kp at 1 h [4] was 1.2, the Ki (D(2) dopamine receptor) was over 4680 nM and the Papp A→B at 1 µM [6] was 14 ×10⁻⁶ cm/s. For the same molecule, the Activity [7] was “inactive”, the Activity [8] was “inactive” and the Activity [9] was “inactive”. The Activity [10] was “inactive” and the Activity [11] was “inactive”.
C[C@H]1CN(Cc2nc3ncccc3n2C)CC[C@H]1c1ccc(C(F)(F)F)cc1F gave a Ratio (HEK293) of over 584, a Cmax [17] of 3120 nM and a bioavailability [18] of 74%. It also gave a clearance [19] of 7.5 mL/min/kg, a Fu (Brain) of 0.5% and a Kp at 1 h [3] of 7. For the same molecule, the Kp at 1 h [4] was 1.9, the EC50 [5] was 3 nM and the Ki (D(2) dopamine receptor) was over 5260 nM. It also gave a Papp A→B at 1 µM [6] of 26 ×10⁻⁶ cm/s, a Ratio (MDCK) of 1.7 and an EC50 [1] of 9 nM. The Activity [7] was “inactive”, the Activity [8] was “inactive” and the Activity [9] was “inactive”. The Activity [10] was “inactive” and the Activity [11] was “inactive”.
For C[C@@H]1CN(Cc2nc3ncccc3n2C)CC[C@@H]1c1ccc(C(F)(F)F)cc1, the Ki (D(2) dopamine receptor) was over 2800 nM and the EC50 [1] was over 1990 nM.
Work on Cn1c(CN2CCC(c3ccc(C(F)(F)F)cc3F)CC2)nc2ncccc21 yielded a Ki (D(2) dopamine receptor) of 1780 nM and an EC50 [1] of 25.1 nM.
Work on Cn1c(CN2CC[C@@H](c3ccc(C(F)(F)F)cc3)C(C)(C)C2)nc2ncccc21 yielded a Ki (D(2) dopamine receptor) of over 2800 nM and an EC50 [1] of 745 nM.
